Converted amounts (≈) assume the structure as drawn. “And” between values parts separate entries of the source, which are not always exact repeats. Equal values may be shown once.
Assays:
Staphylococcus aureus [1] = assay: Antimicrobial activity against Methicillin-resistant Staphylococcus aureus assessed as bacterial growth inhibition incubated for 24 hrs by microdilution method; format: functional
Staphylococcus aureus [2] = assay: Antimicrobial activity against Methicillin-resistant Staphylococcus aureus assessed as bacterial growth inhibition incubated for 24 hrs by agar disc diffusion method; format: functional
Staphylococcus aureus [3] = assay: Antimicrobial activity against Methicillin-resistant Staphylococcus aureus BFSA31 assessed as bacterial growth inhibition by microdilution method; format: functional; settings: BFA31
Staphylococcus aureus [4] = assay: Antimicrobial activity against Methicillin-resistant Staphylococcus aureus BFSA32 assessed as bacterial growth inhibition by microdilution method; format: functional; settings: BFA32
Staphylococcus aureus [5] = assay: Antimicrobial activity against Methicillin-resistant Staphylococcus aureus BFSA33 assessed as bacterial growth inhibition by microdilution method; format: functional; settings: BFA33
Staphylococcus aureus [6] = assay: Antimicrobial activity against Methicillin-resistant Staphylococcus aureus BFSA25 assessed as bacterial growth inhibition by microdilution method; format: functional; settings: BFA25
Staphylococcus aureus [7] = assay: Antimicrobial activity against Methicillin-resistant Staphylococcus aureus BFSA30 assessed as bacterial growth inhibition by microdilution method; format: functional; settings: BFA30
Staphylococcus aureus [8] = assay: Antimicrobial activity against Methicillin-resistant Staphylococcus aureus ATCC 3167 assessed as bacterial growth inhibition; format: functional
Staphylococcus aureus [9] = assay: Antimicrobial activity against Methicillin-resistant Staphylococcus aureus BFSA48 assessed as bacterial growth inhibition by microdilution method; format: functional; settings: BFA48
Staphylococcus aureus [10] = assay: Antimicrobial activity against Methicillin-resistant Staphylococcus aureus ATCC 33592 assessed as bacterial growth inhibition incubated for 20 to 24 hrs by microdilution assay; format: functional; settings: time 20-24 hrs
Staphylococcus aureus [11] = assay: Antimicrobial activity against Methicillin-resistant Staphylococcus aureus ATCC 33592 assessed as bacterial growth inhibition incubated for 20 to 24 hrs by microdilution method; format: functional; settings: time 20-24 hrs
Staphylococcus aureus [12] = assay: Antimicrobial activity against Methicillin-resistant Staphylococcus aureus ATCC 43300 assessed as bacterial growth inhibition; format: functional
[13] = tested on: Salmonella enterica subsp. enterica; assay: Antimicrobial activity against Salmonella typhimurium […] assessed as bacterial growth inhibition incubated for 18 hrs by microdilution method; format: functional
Klebsiella pneumoniae = assay: Antimicrobial activity against Klebsiella pneumoniae ATCC 314588 assessed as bacterial growth inhibition incubated for 18 hrs by microdilution method; format: functional
Escherichia coli = assay: Antimicrobial activity against Escherichia coli ATCC 8739 assessed as bacterial growth inhibition incubated for 18 hrs by microdilution method; format: functional
Pseudomonas aeruginosa = assay: Antimicrobial activity against Pseudomonas aeruginosa ATCC 27853 assessed as bacterial growth inhibition incubated for 18 hrs by microdilution method; format: functional
Staphylococcus aureus [14] = assay: Antimicrobial activity against Methicillin-resistant Staphylococcus aureus ATCC BAA 1683 assessed as bacterial growth inhibition incubated for 18 hrs by microdilution method; format: functional
Staphylococcus aureus [15] = assay: Antimicrobial activity against Methicillin sensitive Staphylococcus aureus assessed as bacterial growth inhibition incubated for 18 hrs; format: functional
Staphylococcus aureus [16] = assay: Antimicrobial activity against Methicillin-resistant Staphylococcus aureus assessed as bacterial growth inhibition incubated for 24 hrs; format: functional
Staphylococcus aureus [17] = assay: Antimicrobial activity against Methicillin-resistant Staphylococcus aureus ATCC 33591 assessed as bacterial growth inhibition incubated for 20 to 24 hrs by microdilution method; format: functional; settings: time 20-24 hrs
Staphylococcus aureus [18] = assay: Antimicrobial activity against Staphylococcus aureus 209 assessed as bacterial growth inhibition; format: functional
Staphylococcus aureus [19] = assay: Antimicrobial activity against Methicillin-resistant Staphylococcus aureus CCARM 3506 assessed as bacterial growth inhibition incubated for 24 hrs by ELISA assay; format: functional
Staphylococcus aureus [20] = assay: Antimicrobial activity against Staphylococcus aureus LysRs assessed as bacterial growth inhibition by microdilution method; format: functional, organism-based
Staphylococcus aureus [21] = assay: Antimicrobial activity against Methicillin-resistant Staphylococcus aureus assessed as bacterial growth inhibition; format: functional
Staphylococcus aureus [22] = assay: Antimicrobial activity against Methicillin-sensitive Staphylococcus aureus ATCC 33591 assessed as bacterial growth inhibition incubated for 24 hrs; format: functional
Staphylococcus aureus [23] = assay: Antimicrobial activity against Methicillin-sensitive Staphylococcus aureus ATCC 43300 assessed as bacterial growth inhibition incubated for 24 hrs; format: functional; settings: ATCC43300
Staphylococcus aureus [24] = assay: Antimicrobial activity against Methicillin-sensitive Staphylococcus aureus ATCC 43300 assessed as bacterial growth inhibition by microbroth serial dilution method; format: functional
Staphylococcus aureus [25] = assay: Antimicrobial activity against Methicillin-sensitive Staphylococcus aureus ATCC 33591 assessed as bacterial growth inhibition by microbroth serial dilution method; format: functional
[26] = target: T1, Dihydrofolate reductase (Homo sapiens) (UniProt P00374); assay: Inhibition of human DHFR using TMB as substrate incubated for 1.5 hrs by ELISA assay relative to control; settings: concentration not given here
T1 sequence (whole entry): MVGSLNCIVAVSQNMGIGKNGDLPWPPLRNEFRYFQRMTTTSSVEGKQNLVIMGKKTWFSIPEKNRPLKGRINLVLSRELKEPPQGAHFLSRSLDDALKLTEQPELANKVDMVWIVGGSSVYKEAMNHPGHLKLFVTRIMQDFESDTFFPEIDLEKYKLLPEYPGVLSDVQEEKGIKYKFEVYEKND

Staphylococcus aureus [27] = assay: Antimicrobial activity against Methicillin-resistant Staphylococcus aureus assessed as bacterial growth inhibition by disc diffusion method; format: functional
Staphylococcus aureus [28] = assay: Antimicrobial activity against vancomycin intermediate-resistant Staphylococcus aureus assessed as bacterial growth inhibition incubated for 24 hrs by microdilution method; format: functional
Staphylococcus aureus [29] = assay: Antimicrobial activity against Methicillin-resistant Staphylococcus aureus MW2 assessed as bacterial growth inhibition incubated for 18 hrs by microdilution method; format: functional
Staphylococcus aureus [30] = assay: Antimicrobial activity against Methicillin-resistant Staphylococcus aureus assessed as bacterial growth inhibition by agar well diffusion method; format: functional
Staphylococcus aureus [31] = assay: Antimicrobial activity against Methicillin-resistant Staphylococcus aureus assessed as bacterial growth inhibition by microtiter dilution plate method; format: functional
Staphylococcus aureus [32] = assay: Antimicrobial activity against Methicillin-resistant Staphylococcus aureus ATCC 700699 assessed as bacterial growth inhibition incubated for 20 to 24 hrs by microdilution method; format: functional; settings: time 20-24 hrs
Staphylococcus aureus [33] = assay: Antimicrobial activity against Methicillin-resistant Staphylococcus aureus BAA-2312 assessed as bacterial growth inhibition; format: functional
Staphylococcus aureus [34] = assay: Antimicrobial activity against Methicillin-sensitive Staphylococcus aureus ATCC 25923 assessed as bacterial growth inhibition; format: functional
Staphylococcus aureus [35] = assay: Antimicrobial activity against Methicillin-resistant Staphylococcus aureus ATCC 33591 assessed as bacterial growth inhibition; format: functional
Staphylococcus aureus [36] = assay: Antimicrobial activity against Methicillin-resistant Staphylococcus aureus ATCC 33592 assessed as bacterial growth inhibition; format: functional
Staphylococcus aureus [37] = assay: Antimicrobial activity against Methicillin-resistant Staphylococcus aureus ATCC 700699 assessed as bacterial growth inhibition; format: functional

## CCOC(=O)c1nn(-c2ccccc2)cc1C(=O)c1ccc(S(=O)(=O)c2ccccc2)cc1
Staphylococcus aureus [1]
  MIC: 25 µg/mL (≈ 54.3 µM)
Staphylococcus aureus [2]
  inhibition zone (IZ): 14 mm

## Cc1onc(-c2ccccc2)c1C(=O)N[C@@H]1C(=O)N2[C@@H]1SC(C)(C)[C@@H]2C(=O)O [OXACILLIN]
Staphylococcus aureus [3]
  MIC: > 32 µg/mL
Staphylococcus aureus [4]
  MIC: > 32 µg/mL
Staphylococcus aureus [5]
  MIC: > 32 µg/mL
Staphylococcus aureus [6]
  MIC: > 32 µg/mL
Staphylococcus aureus [7]
  MIC: > 32 µg/mL
Staphylococcus aureus [8]
  MIC: 64 µM (≈ 25.7 µg/mL)
Staphylococcus aureus [9]
  MIC: > 32 µg/mL

## O=C(O)c1ccc(-n2cc(/C=N/N(c3ccccc3)c3ccccc3)c(-c3cc4ccccc4oc3=O)n2)cc1
Staphylococcus aureus [10]
  MIC: 3.12 µg/mL (≈ 5.93 µM)

## O=C(O)c1ccc(-n2cc(/C=N/Nc3cccc(Cl)c3F)c(-c3cccc(F)c3)n2)cc1
Staphylococcus aureus [11]
  MIC: 0.78 µg/mL (≈ 1.72 µM)

## COc1ccc(-n2nc(C(C)(C)C)cc2NC(=O)c2cccc(Cl)c2)cc1
Staphylococcus aureus [12]
  MIC: 3.12 µg/mL (≈ 8.13 µM)

## Fc1ccc(-c2nn(-c3ccccc3)cc2-c2nc3ccccn3c2Cc2ccccc2)cc1
[13]
  MIC: < 1 µg/mL
Klebsiella pneumoniae
  MIC: < 1 µg/mL
Escherichia coli
  MIC: < 1 µg/mL
Pseudomonas aeruginosa
  MIC: < 1 µg/mL
Staphylococcus aureus [14]
  MIC: 2.5 µg/mL (≈ 5.62 µM)

## C[C@H]1COc2c(N3CCN(C)CC3)c(F)cc3c(=O)c(C(=O)O)cn1c23.C[C@H]1COc2c(N3CCN(C)CC3)c(F)cc3c(=O)c(C(=O)O)cn1c23.O [LEVOFLOXACIN]
Staphylococcus aureus [15]
  MIC: 0.125 µg/mL

## Cc1nn(-c2ccccc2)c(Cl)c1/C=C/c1ccc([N+](=O)[O-])cc1[N+](=O)[O-]
Staphylococcus aureus [16]
  MIC: 25 µg/mL (≈ 65 µM)

## O=C(O)c1ccc(-n2cc(/C=N/Nc3ccc(Cl)cc3Cl)c(-c3cccc(F)c3)n2)cc1
Staphylococcus aureus [17]
  MIC: 0.39 µg/mL (≈ 0.831 µM)

## COc1[nH]nc2nncnc12
Staphylococcus aureus [18]
  MIC: 200 µg/mL (≈ 1320 µM)

## COc1c(N2C[C@@H]3CCCN[C@@H]3C2)c(F)cc2c(=O)c(C(=O)O)cn(C3CC3)c12 [MOXIFLOXACIN]
Staphylococcus aureus [19]
  MIC: 1 µg/mL (≈ 2.49 µM)
Staphylococcus aureus [15]
  MIC: 0.06 µg/mL (≈ 0.149 µM)

## CCc1c2[nH]c(=O)[nH]c(=O)c2nn1CC1CCC1
Staphylococcus aureus [20]
  IC50: 21.7 µM

## O=C(O)c1cn(C2CC2)c2cc(N3CCNCC3)c(F)cc2c1=O [CIPROFLOXACIN]
Staphylococcus aureus [21]
  MBC: 625 µg/mL (≈ 1890 µM)
[13]
  MIC: > 1.8 µg/mL
Klebsiella pneumoniae
  MIC: > 1.8 µg/mL
Escherichia coli
  MIC: > 1.8 µg/mL
Pseudomonas aeruginosa
  MIC: > 1.8 µg/mL
Staphylococcus aureus [14]
  MIC: 1.84 µg/mL (≈ 5.55 µM)

## CC(=O)NC[C@H]1CN(c2ccc(N3CCOCC3)c(F)c2)C(=O)O1 [LINEZOLID]
Staphylococcus aureus [22]
  MBC: 46.2 µM (≈ 15.6 µg/mL)
Staphylococcus aureus [23]
  MBC: 46.2 µM (≈ 15.6 µg/mL)
Staphylococcus aureus [24]
  MBC: 46.2 µM
  MIC: 2.6 µM
Staphylococcus aureus [25]
  MIC: 2.6 µM
Staphylococcus aureus [25]; Staphylococcus aureus, ATCC 33591, read-out: MIC
  MIC: 5.2 µM

## Cc1nn(-c2ccc(Cl)cc2Cl)c(Oc2ccc(Cl)cc2Cl)c1C1N=C(N)NC(NCCc2ccccc2)=N1 (stereo not drawn)
[26]
  inhibition: 43%
Staphylococcus aureus [19]
  MIC: 0.5 µg/mL (≈ 0.829 µM)

## COc1nnc2nn(C)cnc1-2
Staphylococcus aureus [18]
  MIC: 50 µg/mL (≈ 303 µM)

## COc1ccc(Nc2n[nH]c(/N=C\c3ccccc3)c2C(=O)Nc2ccc(C)cc2)cc1
Staphylococcus aureus [27]
  MIC: 15.6 µg/mL (≈ 36.7 µM)

## Cc1nn(-c2ccccc2)c(Cl)c1/C=C(\Br)C(=O)C1C(=O)N(C)C(=O)N(C)C1=O
Staphylococcus aureus [16]
  MIC: 25 µg/mL (≈ 52.1 µM)

## CCCc1c(-c2ccc(O)cc2)nn(-c2ccc(O)cc2)c1-c1ccc(O)cc1 [PROPYLPYRAZOLETRIOL]
Staphylococcus aureus [28]
  MIC: 8 µg/mL (≈ 20.7 µM)
Staphylococcus aureus [29]
  MIC: 8 µg/mL (≈ 20.7 µM)

## c1ccc(-c2cnn3c4c(cnc23)CCCCCC4)cc1
Staphylococcus aureus [30]
  inhibition zone (IZ): 50 mm
Staphylococcus aureus [31]
  MIC: 9 µg/mL

## CCCSC(=S)c1c(C)nn(-c2ccccc2)c1O
Staphylococcus aureus [3]
  MIC: 4 µg/mL
Staphylococcus aureus [4]
  MIC: 4 µg/mL
Staphylococcus aureus [5]
  MIC: 4 µg/mL
Staphylococcus aureus [6]
  MIC: 4 µg/mL
Staphylococcus aureus [7]
  MIC: 4 µg/mL
Staphylococcus aureus [9]
  MIC: 4 µg/mL

## CC(C)(C)c1cc(NC(=O)c2cccc(F)c2)n(-c2ccc(Cl)cc2)n1
Staphylococcus aureus [12]
  MIC: 3.12 µg/mL (≈ 8.39 µM)

## CC(=O)c1nn(-c2ccc([N+](=O)[O-])cc2)cc1C(=O)c1cc2cc(CN3CCN(Cc4ccc5oc(C(=O)c6cn(-c7ccc([N+](=O)[O-])cc7)nc6C(C)=O)cc5c4)CC3)ccc2o1
Staphylococcus aureus [22]
  MBC: 36.2 µM (≈ 31.2 µg/mL)
Staphylococcus aureus [23]
  MBC: 18.1 µM (≈ 15.6 µg/mL)
Staphylococcus aureus [24]
  MBC: 36.2 µM
  MIC: 9 µM
Staphylococcus aureus [25]
  MIC: 18.1 µM and 9 µM

## O=C(O)c1ccc(-n2cc(/C=N/Nc3ccc([N+](=O)[O-])cc3)c(-c3cccc(F)c3)n2)cc1
Staphylococcus aureus [32]
  MIC: 0.78 µg/mL (≈ 1.75 µM)

## O=C(O)c1ccc(-n2cc(/C=N\N(c3ccccc3)c3ccccc3)c(-c3cc4cc(F)ccc4oc3=O)n2)cc1
Staphylococcus aureus [33]
  MIC: 3.12 µg/mL (≈ 5.74 µM)
Staphylococcus aureus [34]
  MIC: 3.12 µg/mL (≈ 5.74 µM)
Staphylococcus aureus [35]
  MIC: 3.12 µg/mL (≈ 5.74 µM)
Staphylococcus aureus [36]
  MIC: 3.12 µg/mL (≈ 5.74 µM)
Staphylococcus aureus [37]
  MIC: 3.12 µg/mL (≈ 5.74 µM)

— ChEMBL document CHEMBL5241058, “Pyrazole-based analogs as potential antibacterial agents against methicillin-resistance staphylococcus aureus (MRSA) and its SAR elucidation” (Eur J Med Chem, 2021)
